Data reported in patent publication US8846692B2, “Carboxylic acid derivatives having a 2,5-substituted oxazolopyrimidine ring” (Sanofi, priority 2010, dated 2014).

target: T1, human Edg-1 receptor (Homo sapiens, UniProt P21453); assay: GTP-γ-S assay using human Edg-1 receptors (scintillation proximity assay, CHO Flp-In cell membrane preparation); format: biochemical; details: test compound at 10 μM; 10 μM S1P high control regarded as 100% activation; triplicate
T1 construct: expressed in transfected cells; membrane preparation
Description: Determination of the Pharmacological Activity A) GTP-γ-S Assay Using Human Edg-1 Receptors
In order to determine the Edg-1 receptor activation by the compounds of the invention, a GTP-γ-S (guanosine 5′-[γ-thio]triphosphate) assay for G-protein coupled receptor binding based on the scintillation proximity assay principle was used, employing a cell membrane preparation from a CHO Flp-In cell line which constitutively overexpresses the human Edg-1 receptor.
A membrane preparation was obtained by standard methods from the afore-described CHO Flp-In cell line constitutively overexpressing the human Edg-1 receptor. Briefly, the cryopreserved cells were taken in culture and grown until confluency in T175 cell culture flasks (Becton Dickinson, cat. no. 35 5001). Cell culture was stopped by washing with calcium-free phosphate-buffered saline (PBS; Gibco, cat. no. 14190), and cells were harvested with a rubber-policeman in 4° C. cold and calcium-free PBS supplemented with a protease inhibitor cocktail (complete protease inhibitor; Roche, cat. no. 1697498; 1 tablet per 50 ml) and subsequently centrifuged at 4° C. for 15 min at 1100×g (Heraeus Minifuge T). For cell lysis, the pellet was resuspended in a 4° C. cold hypotonic buffer consisting of 5 mM HEPES (Sigma-Aldrich, cat. no. H-0981), 1 mM EDTA (disodium salt; Merck, cat. No. 8418) supplemented with protease inhibitor cocktail (as above) in which cells were stored for another 15 min on ice. After lysis, cells were centrifuged at 4° C. for 10 min at 400×g (Heraeus Minifuge T). The pellet was disrupted in a Dounce homogenizer, diluted with the supernatant of the previous centrifugation and subsequently centrifuged at 4° C. for 10 min at 500×g (Heraeus Minifuge T) in order to separate nuclei and still intact cells from the membranes mainly present in the supernatant. The supernatant was then diluted in hypotonic buffer and centrifuged (Beckmann, Avanti J251) at approximately 18600×g for 2 h at 4° C. After centrifugation, the membrane pellet was resuspended in a storing buffer consisting of 20 mM HEPES; 150 mM NaCl (Merck, cat. no. 6400), 1 mM EDTA (as above) supplemented with protease inhibitor cocktail (as above). The membrane preparation was aliquoted and stored at −80° C. Protein concentration of the membrane preparation was determined in a sample by means of a commercial protein assay (Bio-Rad, DC Protein Assay, cat. nos. 500-0113, 500-0114, 500-0115).
The Edg-1 membrane preparation obtained in (b) was employed in a commercially available scintillation proximity assay (SPA) kit for G-protein coupled receptor binding from Amersham Biosciences/GE Healthcare (code RPNQ0210), in which ligand-induced binding of ^35S-radiolabled GTP-γ-S to the receptor-containing membrane, which is bound to scintillation beads, stimulates the emission of light and allows to quantify the in vitro activity of the Edg-1 agonistic compound. The assay was performed on a 96-well plate scale substantially according to the manufacturer's instructions. Before start of the experiments, scintillation beads were suspended in a reconstitution buffer consisting of Tris-HCl (pH 7.4) supplemented with 0.1% (w/v) sodium azide and subsequently diluted on ice with assay buffer (consisting of 20 mM HEPES, 100 mM NaCl, 1 mM EDTA (as above), 1 mM dithiothreitol (DTT), adjusted to pH 7.4) to a final bead concentration of 30 mg/ml.
Wells were charged with 10 μl of the specified assay buffer, 10 μl of a 100 μM guanosine diphosphate (GDP) solution, and 10 μl of a solution of the test compound in assay buffer/dimethylsulfoxide resulting in a final concentration of the test compound of 10 μM. For the high controls, 10 μl of a solution of sphingosine-1-phosphate (S1P; Sigma, cat. no. S-9666), resulting in a final S1P concentration of 10 μM, and for the low controls 10 μl of assay buffer, was added into respective wells instead of the solution of the test compound. All wells contained equivalent amounts of dimethylsulfoxide. […]

T1 sequence (P21453 whole entry): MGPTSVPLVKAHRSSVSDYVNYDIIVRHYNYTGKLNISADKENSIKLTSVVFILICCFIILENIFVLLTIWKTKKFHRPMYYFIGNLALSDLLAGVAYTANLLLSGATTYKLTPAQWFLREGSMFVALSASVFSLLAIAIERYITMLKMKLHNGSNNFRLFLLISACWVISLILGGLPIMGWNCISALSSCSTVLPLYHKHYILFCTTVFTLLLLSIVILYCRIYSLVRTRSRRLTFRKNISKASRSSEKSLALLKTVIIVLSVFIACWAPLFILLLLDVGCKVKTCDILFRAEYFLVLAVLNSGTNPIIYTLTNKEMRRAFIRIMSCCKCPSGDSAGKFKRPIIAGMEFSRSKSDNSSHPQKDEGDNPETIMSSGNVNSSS

Structure (SMILES) | % Activation (Edg-1 receptor activation in percent of the activation by 10 μM S1P) [%]
Cc1cc(-c2nc3cnc(Oc4cccc(Cl)c4)nc3o2)cc(C)c1OCC(=O)O [Example 8, {4-[5-(3-chloro-phenoxy)-oxazolo[5,4-d]pyrimidin-2-yl]-2,6-dimethyl-phenoxy}-acetic acid] | 74

same assay, conditions: test compound at 10 μM; 10 μM S1P high control regarded as 100% activation; triplicate; read-out: % Activation (Edg-1 receptor activation in percent of the activation by 10 μM S1P)

Structure (SMILES) | activation at 10 µM [%]
Cc1cc(-c2nc3cnc(Oc4ccccc4)nc3o2)cc(C)c1OCC(=O)O [Example 1, [2,6-Dimethyl-4-(5-phenoxy-oxazolo[5,4-d]pyrimidin-2-yl)-phenoxy]-acetic acid] | 116
O=C(O)/C=C/c1ccc(-c2nc3cnc(Oc4ccccc4F)nc3o2)cc1 [Example 2, (E)-3-{4-[5-(2-Fluoro-phenoxy)-oxazolo[5,4-d]pyrimidin-2-yl]-phenyl}-acrylic acid] | 83
Cc1cc(-c2nc3cnc(Oc4ccc(F)cc4F)nc3o2)cc(C)c1OCC(=O)O [Example 3, {4-[5-(2,4-difluoro-phenoxy)-oxazolo[5,4-d]pyrimidin-2-yl]-2,6-dimethyl-phenoxy}-acetic acid] | 95
Cc1cc(-c2nc3cnc(Oc4cc(F)ccc4F)nc3o2)cc(C)c1OCC(=O)O [Example 4, {4-[5-(2,5-difluoro-phenoxy)-oxazolo[5,4-d]pyrimidin-2-yl]-2,6-dimethyl-phenoxy}-acetic acid] | 103
Cc1ccc(Oc2ncc3nc(-c4cc(C)c(OCC(=O)O)c(C)c4)oc3n2)c(F)c1 [Example 5, {4-[5-(2-fluoro-4-methyl-phenoxy)-oxazolo[5,4-d]pyrimidin-2-yl]-2,6-dimethyl-phenoxy}-acetic acid] | 101
Cc1cc(-c2nc3cnc(Oc4ccccc4F)nc3o2)cc(C)c1OCC(=O)O [Example 6, {4-[5-(2-fluoro-phenoxy)-oxazolo[5,4-d]pyrimidin-2-yl]-2,6-dimethyl-phenoxy}-acetic acid] | 110
Cc1cc(-c2nc3cnc(Oc4ccccc4F)nc3o2)cc(C)c1OC(C)C(=O)O (stereo not drawn) [Example 7, 2-{4-[5-(2-fluoro-phenoxy)-oxazolo[5,4-d]pyrimidin-2-yl]-2,6-dimethyl-phenoxy}-propionic acid] | 84
Cc1ccc(Oc2ncc3nc(-c4cc(C)c(OCC(=O)O)c(C)c4)oc3n2)cc1F [Example 9, {4-[5-(3-fluoro-4-methyl-phenoxy)-oxazolo[5,4-d]pyrimidin-2-yl]-2,6-dimethyl-phenoxy}-acetic acid] | 87
Cc1ccc(F)cc1Oc1ncc2nc(-c3cc(C)c(OCC(=O)O)c(C)c3)oc2n1 [Example 10, {4-[5-(5-fluoro-2-methyl-phenoxy)-oxazolo[5,4-d]pyrimidin-2-yl]-2,6-dimethyl-phenoxy}-acetic acid] | 112
Cc1cc(-c2nc3cnc(Oc4ccc(Cl)cc4)nc3o2)cc(C)c1OCC(=O)O [Example 11, {4-[5-(4-chloro-phenoxy)-oxazolo[5,4-d]pyrimidin-2-yl]-2,6-dimethyl-phenoxy}-acetic acid] | 105
Cc1cc(-c2nc3cnc(OC4CCCC4)nc3o2)cc(C)c1OCC(=O)O [Example 12, [4-(5-cyclopentyloxy-oxazolo[5,4-d]pyrimidin-2-yl)-2,6-dimethyl-phenoxy]-acetic acid] | 46
